Experimental data from PubChem BioAssay AID1918934 (Molecular Pharmacology Branch, DTP, NCI, 2023).
Where “and” joins values, the source holds several entries; their conditions need not be identical. Identical values can stand only once.

System: 292921-168-R-J2-PDC complex spheroid viability
Assay: Anticancer human tumor 292921-168-R-J2-PDC patient-derived pancreatic carcinoma cell line growth inhibition
Details: for viability, T/C: stronger effect = lower value
How it was run: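 Multicellular complex spheroids of tumor cells with human endothelial cells (HUVEC) and mesenchymal stem cells; the LSD1 inhibitor iadademstat was combined with standard-of-care or investigational agents. Top concentration at or near clinical Cmax, half-log dilutions; final DMSO ≤0.25%.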

[1] = curve of first compound, second compound 0.1 µM
[2] = curve of first compound, second compound 0.316 µM
[3] = curve of first compound, second compound 1 µM
[4] = curve of first compound, second compound 3.16 µM
[5] = curve of first compound, second compound 10 µM
[6] = second compound 0.1 µM, first compound 0.00949 µM
[7] = second compound 0.1 µM, first compound 0.03 µM
[8] = second compound 0.1 µM, first compound 0.0949 µM
[9] = second compound 0.1 µM, first compound 0.3 µM
[10] = second compound 0.1 µM, first compound 0.949 µM
[11] = second compound 0.1 µM, first compound 3 µM
[12] = second compound 0.316 µM, first compound 0.00949 µM
[13] = second compound 0.316 µM, first compound 0.03 µM
[14] = second compound 0.316 µM, first compound 0.0949 µM
[15] = second compound 0.316 µM, first compound 0.3 µM
[16] = second compound 0.316 µM, first compound 0.949 µM
[17] = second compound 0.316 µM, first compound 3 µM
[18] = second compound 1 µM, first compound 0.00949 µM
[19] = second compound 1 µM, first compound 0.03 µM
[20] = second compound 1 µM, first compound 0.0949 µM
[21] = second compound 1 µM, first compound 0.3 µM
[22] = second compound 1 µM, first compound 0.949 µM
[23] = second compound 1 µM, first compound 3 µM
[24] = second compound 3.16 µM, first compound 0.00949 µM
[25] = second compound 3.16 µM, first compound 0.03 µM
[26] = second compound 3.16 µM, first compound 0.0949 µM
[27] = second compound 3.16 µM, first compound 0.3 µM
[28] = second compound 3.16 µM, first compound 0.949 µM
[29] = second compound 3.16 µM, first compound 3 µM
[30] = second compound 10 µM, first compound 0.00949 µM
[31] = second compound 10 µM, first compound 0.03 µM
[32] = second compound 10 µM, first compound 0.0949 µM
[33] = second compound 10 µM, first compound 0.3 µM
[34] = second compound 10 µM, first compound 0.949 µM
[35] = second compound 10 µM, first compound 3 µM
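Note: seven day compound exposure before luminescent viability read.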
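Throughout, for viability, T/C: 100% = DMSO vehicle control wells.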

CC(C)c1c(-c2ccccc2)nc2c(C#N)c[nH]n2c1=O + NC1CCC(NC2CC2c2ccccc2)CC1
IC50 [1]: > 10000 nM | IC50 [2]: > 10000 nM | IC50 [3]: > 10000 nM | IC50 [4]: 9720 nM | IC50 [5]: 1680 nM | viability, T/C (second compound 0.1 µM, first compound 0.0316 µM): 63.4% | viability, T/C (second compound 0.1 µM, first compound 0.1 µM): 67.2% | viability, T/C (second compound 0.1 µM, first compound 0.316 µM): 59.7% | viability, T/C (second compound 0.1 µM, first compound 1 µM): 70% | viability, T/C (second compound 0.1 µM, first compound 3.16 µM): 61.1% | viability, T/C (second compound 0.1 µM, first compound 10 µM): 57% | viability, T/C (second compound 0.316 µM, first compound 0.0316 µM): 63.1% | viability, T/C (second compound 0.316 µM, first compound 0.1 µM): 60.1% | viability, T/C (second compound 0.316 µM, first compound 0.316 µM): 63.6% | viability, T/C (second compound 0.316 µM, first compound 1 µM): 64.2% | viability, T/C (second compound 0.316 µM, first compound 3.16 µM): 64.2% | viability, T/C (second compound 0.316 µM, first compound 10 µM): 51.3% | viability, T/C (second compound 1 µM, first compound 0.0316 µM): 52.7% | viability, T/C (second compound 1 µM, first compound 0.1 µM): 55.4% | viability, T/C (second compound 1 µM, first compound 0.316 µM): 54.2% | viability, T/C (second compound 1 µM, first compound 1 µM): 57.5% | viability, T/C (second compound 1 µM, first compound 3.16 µM): 57.4% | viability, T/C (second compound 1 µM, first compound 10 µM): 51.6% | viability, T/C (second compound 3.16 µM, first compound 0.0316 µM): 55.7% | viability, T/C (second compound 3.16 µM, first compound 0.1 µM): 55.3% | viability, T/C (second compound 3.16 µM, first compound 0.316 µM): 52.8% | viability, T/C (second compound 3.16 µM, first compound 1 µM): 56.1% | viability, T/C (second compound 3.16 µM, first compound 3.16 µM): 49% | viability, T/C (second compound 3.16 µM, first compound 10 µM): 49.9% | viability, T/C (second compound 10 µM, first compound 0.0316 µM): 52.9% | viability, T/C (second compound 10 µM, first compound 0.1 µM): 53.8% | viability, T/C (second compound 10 µM, first compound 0.316 µM): 53.2% | viability, T/C (second compound 10 µM, first compound 1 µM): 54.6% | viability, T/C (second compound 10 µM, first compound 3.16 µM): 45.6% | viability, T/C (second compound 10 µM, first compound 10 µM): 40%

COc1cc(C2c3cc4c(cc3C(OC3OC5COC(C)OC5C(O)C3O)C3COC(=O)C23)OCO4)cc(OC)c1O (configuration not stated) + NC1CCC(NC2CC2c2ccccc2)CC1
IC50 [1]: 23.8 nM | IC50 [2]: 24.2 nM | IC50 [3]: 16.3 nM | IC50 [4]: 15.3 nM | IC50 [5]: 9.52 nM | viability, T/C [6]: 62.7% | viability, T/C [7]: 48.7% | viability, T/C [8]: 27.9% | viability, T/C [9]: 20.8% | viability, T/C [10]: 11.2% | viability, T/C [11]: 5.3% | viability, T/C [12]: 67.6% | viability, T/C [13]: 45.2% | viability, T/C [14]: 29.6% | viability, T/C [15]: 21.5% | viability, T/C [16]: 8.7% | viability, T/C [17]: 6.82% | viability, T/C [18]: 56% | viability, T/C [19]: 42.9% | viability, T/C [20]: 30.5% | viability, T/C [21]: 20% | viability, T/C [22]: 8.76% | viability, T/C [23]: 5.56% | viability, T/C [24]: 56.1% | viability, T/C [25]: 40.5% | viability, T/C [26]: 30.7% | viability, T/C [27]: 19% | viability, T/C [28]: 8.55% | viability, T/C [29]: 7.39% | viability, T/C [30]: 50.1% | viability, T/C [31]: 38.8% | viability, T/C [32]: 27.3% | viability, T/C [33]: 16.3% | viability, T/C [34]: 9.55% | viability, T/C [35]: 6.68%

COc1cc(C2c3cc4c(cc3C(OC3OC5COC(C)OC5C(O)C3O)C3COC(=O)C23)OCO4)cc(OC)c1O (configuration not stated) + NC1CC1c1ccc(-c2cccc(O)c2)cc1
IC50 [1]: 42.7 nM | IC50 [2]: 21.3 nM | IC50 [3]: 21.4 nM | IC50 [4]: 13.7 nM | IC50 [5]: < 9.49 nM | viability, T/C [6]: 84.3% | viability, T/C [7]: 58.9% | viability, T/C [8]: 30.1% | viability, T/C [9]: 19.4% | viability, T/C [10]: 7.22% | viability, T/C [11]: 4.45% | viability, T/C [12]: 64.8% | viability, T/C [13]: 44.4% | viability, T/C [14]: 25.7% | viability, T/C [15]: 18.6% | viability, T/C [16]: 8.04% | viability, T/C [17]: 5.02% | viability, T/C [18]: 64.7% | viability, T/C [19]: 43.3% | viability, T/C [20]: 27.4% | viability, T/C [21]: 16.4% | viability, T/C [22]: 5.52% | viability, T/C [23]: 4.94% | viability, T/C [24]: 54.8% | viability, T/C [25]: 39.9% | viability, T/C [26]: 24.3% | viability, T/C [27]: 15.2% | viability, T/C [28]: 7.27% | viability, T/C [29]: 3.74% | viability, T/C [30]: 44.7% | viability, T/C [31]: 27.4% | viability, T/C [32]: 23% | viability, T/C [33]: 17.1% | viability, T/C [34]: 6.98% | viability, T/C [35]: 5.53%

NS(=O)(=O)OCC1CC(n2ccc3c(NC4CCc5ccccc54)ncnc32)CC1O (configuration not stated) + NC1CC1c1ccc(-c2cccc(O)c2)cc1
IC50 [1]: 17.4 nM | IC50 [2]: 17.3 nM | IC50 [3]: 17.4 nM | IC50 [4]: 17.9 nM | IC50 [5]: 16.4 nM | viability, T/C [6]: 87.4% | viability, T/C [7]: 16.4% | viability, T/C [8]: 5.35% | viability, T/C [9]: 2.15% | viability, T/C [10]: 2.62% | viability, T/C [11]: 1.96% | viability, T/C [12]: 86.8% | viability, T/C [13]: 16% | viability, T/C [14]: 5.14% | viability, T/C [15]: 2.21% | viability, T/C [16]: 1.99% | viability, T/C [17]: 2.75% | viability, T/C [18]: 89.1% | viability, T/C [19]: 14.7% | viability, T/C [20]: 4.08% | viability, T/C [21]: 2.39% | viability, T/C [22]: 2.73% | viability, T/C [23]: 2.93% | viability, T/C [24]: 91% | viability, T/C [25]: 16.4% | viability, T/C [26]: 5.76% | viability, T/C [27]: 2.49% | viability, T/C [28]: 3.17% | viability, T/C [29]: 2.38% | viability, T/C [30]: 76.1% | viability, T/C [31]: 21.5% | viability, T/C [32]: 5.5% | viability, T/C [33]: 2.88% | viability, T/C [34]: 2.28% | viability, T/C [35]: 2.43%

CC(C)CC(NC(=O)CNC(=O)c1cc(Cl)ccc1Cl)B1OC(=O)CC(CC(=O)O)(C(=O)O)O1 (configuration not stated)
viability, T/C (compound 0.000316 µM): 99.1% and 96.2% | viability, T/C (compound 0.001 µM): 113% and 105% | viability, T/C (compound 0.00316 µM): 87.8% and 85.7% | viability, T/C (compound 0.01 µM): 17% and 20.2% | viability, T/C (compound 0.0316 µM): 6.27% and 3.15% | viability, T/C (compound 0.1 µM): 0.79% and 0.83% | IC50 (curve of compound): 5.86 nM and 5.94 nM
